Data reported in patent US11407736B2 (priority 2019, dated 2022).
pIC50: −log10 of the molar value. Structures can show the parent of a compound that is named as a salt. Where two headings read alike, the source gives them in different places.

Experiments:
U937 cells = assay: U937 cell necroptosis assay (TNFa + zVAD, CellTiter-Glo); format: cell-based, human
Summary of the method: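 Necroptosis was induced with TNFa at 2 ng/mL final for 18 h at 37 °C, following 1 h compound pre-incubation in the presence of zVAD-fmk (60 uM for U937 plating medium, 40 uM for L929 medium). Luminescent CellTiter-Glo signal gave relative cell survival.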

RIPK1 = RIPK1 (Homo sapiens (Human), UniProt Q13546); assay: RIPK1 ADP-Glo biochemical kinase assay
Description: The final reaction volume was 5.0ul.
Adding 5 μl of ADP-Glo™ terminated the reaction.

L929 cells = assay: L929 cell necroptosis assay (TNFa + zVAD, CellTiter-Glo); format: cell-based, murine
Summary of the method: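 Necroptosis was read as CellTiter-Glo luminescence 18 hours after TNFa stimulation at 37° C, 5% CO2. Prior to that, L929 cells (10K/well, plated 18 h) received fresh medium with 40 uM zVAD-fmk plus 4-fold serially diluted compound.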

[1] = Homo sapiens, U-937, U937 cells, TNFa + zVAD, read-out: U937 Zvad TNF CTG Recovery, U937, TNFa + zVAD (IC50)
[2] = read-out: RIPK1 ADP-Glo Kinase (IC50)
[3] = Mus musculus, L929, L929 cells, TNFa + zVAD, read-out: L929-CTG-recovery, L929, TNFa + zVAD (IC50)
[4] = Mus musculus, L929 cells, TNFa + zVAD, read-out: L929-CTG-recovery, L929, TNFa + zVAD (IC50)
[5] = Homo sapiens, U-937, read-out: U937 Zvad TNF CTG Recovery, U937, TNFa + zVAD (IC50), U937 cells, TNFa + zVAD
[6] = Mus musculus, L929, read-out: L929-CTG-recovery, L929, TNFa + zVAD (IC50), L929 cells, TNFa + zVAD

Sequence of RIPK1 (Q13546 whole entry, species assumed): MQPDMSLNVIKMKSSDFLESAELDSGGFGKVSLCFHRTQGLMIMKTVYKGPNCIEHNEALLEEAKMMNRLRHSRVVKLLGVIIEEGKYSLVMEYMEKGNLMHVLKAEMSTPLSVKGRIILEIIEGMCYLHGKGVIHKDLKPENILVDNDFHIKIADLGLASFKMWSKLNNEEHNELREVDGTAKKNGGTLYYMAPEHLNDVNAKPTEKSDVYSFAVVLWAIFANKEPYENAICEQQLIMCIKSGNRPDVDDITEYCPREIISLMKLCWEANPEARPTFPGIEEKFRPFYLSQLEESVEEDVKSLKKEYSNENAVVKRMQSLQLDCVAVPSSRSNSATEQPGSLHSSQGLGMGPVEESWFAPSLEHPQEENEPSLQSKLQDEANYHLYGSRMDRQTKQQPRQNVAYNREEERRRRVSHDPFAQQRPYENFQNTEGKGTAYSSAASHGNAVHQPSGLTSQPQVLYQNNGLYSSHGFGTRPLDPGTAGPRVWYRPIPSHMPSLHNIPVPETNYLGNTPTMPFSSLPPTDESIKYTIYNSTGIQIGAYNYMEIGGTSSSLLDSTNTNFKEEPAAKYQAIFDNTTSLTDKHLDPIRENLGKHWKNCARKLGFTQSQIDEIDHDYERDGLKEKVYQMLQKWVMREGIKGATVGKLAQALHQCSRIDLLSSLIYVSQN

Row | SMILES | pIC50 (RIPK1; [2]) | pIC50 (U937 cells; [1]) | pIC50 (L929 cells; [3]) | also measured
1 | C[C@H](NC(=O)OC(C)(C)C)C(=O)OCC(C)(C)C#Cc1ccc2c(c1)N(C)C(=O)[C@@H](NC(=O)c1cc(Oc3ccccc3)ccn1)CO2 [Compound I-141, tert-butyl ((S)-1-((2,2-dimethyl-4-((S)-5-methyl-4-oxo-3-(4-phenoxypicolinamido)-2,3,4,5-tetrahydrobenzo[b][1,4]oxazepin-7-yl)but-3-yn-1-yl)oxy)-1-oxopropan-2-yl)-12-azanecarboxylate] | 6.38 | – | – | pIC50 (U937 cells; U937 cells, TNFa + zVAD, read-out: U937 Zvad TNF CTG Recovery, U937, TNFa + zVAD (IC50)): 8.66; pIC50 (L929 cells; L929 cells, TNFa + zVAD, read-out: L929-CTG-recovery, L929, TNFa + zVAD (IC50)): 6.92
2 | CN1C(=O)[C@@H](NC(=O)c2n[nH]c(Cc3ccccc3)n2)COc2ccc(CCC(=O)N3CCCC3)cc21 [Compound I-10, (S)-5-benzyl-N-(5-methyl-4-oxo-7-(3-oxo-3-(pyrrolidin-1-yl)propyl)-2,3,4,5-tetrahydrobenzo[b][1,4]oxazepin-3-yl)-1H-1,2,4-triazole-3-carboxamide] | 7.37 | 8.10 | 4.95 | –
3 | CN1C(=O)[C@@H](NC(=O)c2cc(Oc3ccccc3)ccn2)COc2ccc(C#Cc3cccc(C#N)n3)cc21 [II-33, (S)—N-(7-((6-cyanopyridin-2-yl)ethynyl)-5-methyl-4-oxo-2,3,4,5-tetrahydrobenzo[b][1,4]oxazepin-3-yl)-4-phenoxypicolinamide] | 7.00 | 8.74 | 7.48 | –
4 | C[C@H](N)C(=O)OC1(C#Cc2ccc3c(c2)N(C)C(=O)[C@@H](NC(=O)c2cc(Oc4ccccc4)ccn2)CO3)COC1 [Compound I-194, 3-(((S)-5-methyl-4-oxo-3-(4-phenoxypicolinamido)-2,3,4,5-tetrahydrobenzo[b][1,4]oxazepin-7-yl)ethynyl)oxetan-3-yl L-alaninate trifluoroacetic acid salt] | 7.73 | 9.22 | – | pIC50 (L929 cells; [4]): 7.49
5 | CN1C(=O)[C@H](NC(=O)c2n[nH]c(Cc3ccccc3)n2)COc2ccc(C#CC(C)(C)O)cc21 [Compound I-70, (R)-5-benzyl-N-(7-(3-hydroxy-3-methylbut-1-yn-1-yl)-5-methyl-4-oxo-2,3,4,5-tetrahydrobenzo[b][1,4]oxazepin-3-yl)-1H-1,2,4-triazole-3-carboxamide] | 5.94 | 6.73 | 7.71 | –
6 | CN1C(=O)[C@@H](NC(=O)c2cc(Oc3ccccc3)ccn2)COc2ccc(N3CC4(CCOCC4)C3)cc21 [II-28, (S)—N-(5-methyl-4-oxo-7-(7-oxa-2-azaspiro[3.5]nonan-2-yl)-2,3,4,5-tetrahydrobenzo[b][1,4]oxazepin-3-yl)-4-phenoxypicolinamide] | 7.79 | 8.08 | – | pIC50 (L929 cells; [4]): 5.65
7 | CN1C(=O)[C@@H](NC(=O)c2cc(-c3ccccc3)ccn2)COc2ccc(C#CC(C)(C)O)cc21 [II-20, (S)—N-(7-(3-hydroxy-3-methylbut-1-yn-1-yl)-5-methyl-4-oxo-2,3,4,5-tetrahydrobenzo[b][1,4]oxazepin-3-yl)-4-phenylpicolinamide] | 7.39 | – | – | pIC50 (U937 cells; [5]): 7.50; pIC50 (L929 cells; [6]): 4.84
8 | COc1ccc(-c2ccnc(C(=O)N[C@H]3COc4ccc(C#CC(C)(C)O)cc4N(C)C3=O)c2)cc1 [II-22, (S)—N-(7-(3-hydroxy-3-methylbut-1-yn-1-yl)-5-methyl-4-oxo-2,3,4,5-tetrahydrobenzo[b][1,4]oxazepin-3-yl)-4-(4-methoxyphenyl)picolinamide] | 6.51 | – | – | pIC50 (U937 cells; [5]): 6.24; pIC50 (L929 cells; [6]): 4.25
9 | CN1C(=O)[C@@H](NC(=O)n2cc(Cc3ccc(F)cc3F)cn2)COc2ccc(C#CC(C)(C)CNC(=O)OC(C)(C)C)cc21 [Compound I-240, Tert-butyl (S)-(4-(3-(4-(2,4-difluorobenzyl)-1H-pyrazole-1-carboxamido)-5-methyl-4-oxo-2,3,4,5-tetrahydrobenzo[b][1,4]oxazepin-7-yl)-2,2-dimethylbut-3-yn-1-yl)carbamate] | – | 7.82 | 6.03 | pIC50 (RIPK1): 6.58
10 | CN1C(=O)[C@@H](NC(=O)c2ncn(Cc3ccccc3)n2)COc2ccc(C#CC3(O)CCC3)cc21 [Compound I-50, (S)-1-benzyl-N-(7-((1-hydroxycyclobutyl)ethynyl)-5-methyl-4-oxo-2,3,4,5-tetrahydrobenzo[b][1,4]oxazepin-3-yl)-1H-1,2,4-triazole-3-carboxamide] | 7.63 | 8.96 | – | pIC50 (L929 cells; [4]): 9.52
11 | CN(C)CC#Cc1ccc2c(c1)N(C)C(=O)[C@@H](NC(=O)c1cc(Oc3ccccc3)ccn1)CO2 [II-36, (S)—N-(7-(3-(dimethylamino)prop-1-yn-1-yl)-5-methyl-4-oxo-2,3,4,5-tetrahydrobenzo[b][1,4]oxazepin-3-yl)-4-phenoxypicolinamide] | 7.41 | 8.80 | 6.88 | –
12 | CN1C(=O)[C@@H](NC(=O)c2n[nH]c(Cc3ccccc3)n2)COc2ccc(C#CCCOc3ccc4ncccc4c3)cc21 [Compound I-38, (S)-5-benzyl-N-(5-methyl-4-oxo-7-(4-(quinolin-6-yloxy)but-1-yn-1-yl)-2,3,4,5-tetrahydrobenzo[b][1,4]oxazepin-3-yl)-1H-1,2,4-triazole-3-carboxamide] | 7.17 | 8.44 | 9.30 | –
13 | Cc1c(Cc2ccccc2)cnn1C(=O)N[C@H]1COc2ccc(C#CC(C)(C)O)cc2N(C)C1=O [Compound I-220, (S)-4-Benzyl-N-(7-(3-hydroxy-3-methylbut-1-yn-1-yl)-5-methyl-4-oxo-2,3,4,5-tetrahydrobenzo[b][1,4]oxazepin-3-yl)-5-methyl-1H-pyrazole-1-carboxamide] | 7.45 | 8.05 | 5.72 | –

More lines, main results first:

Row | pIC50 (RIPK1; [2]) | SMILES | pIC50 (U937 cells; [1]) | pIC50 (L929 cells; [3]) | also measured
14 | 7.45 | CN1C(=O)[C@@H](NC(=O)n2cc(Cc3ccccc3)cn2)COc2ccc(C#CC(C)(C)O)cc21 [Compound I-213, (S)-4-Benzyl-N-(7-(3-hydroxy-3-methylbut-1-yn-1-yl)-5-methyl-4-oxo-2,3,4,5-tetrahydrobenzo[b][1,4]oxazepin-3-yl)-1H-pyrazole-1-carboxamide] | 9.00 | 7.34 | –
15 | 7.55 | CN1C(=O)[C@@H](NC(=O)n2cc(Cc3ccccc3)cn2)COc2ccc(C#CC3(O)CCC3)cc21 [Compound I-219, (S)-4-Benzyl-N-(7-((1-hydroxycyclobutyl)ethynyl)-5-methyl-4-oxo-2,3,4,5-tetrahydrobenzo[b][1,4]oxazepin-3-yl)-1H-pyrazole-1-carboxamide] | 9.22 | 7.63 | –
16 | 7.51 | CN1C(=O)[C@@H](NC(=O)c2cc(Oc3ccc(F)cc3F)ccn2)COc2ccc(C#CC(C)(C)O)cc21 [Compound I-105, (S)-4-(2,4-difluorophenoxy)-N-(7-(3-hydroxy-3-methylbut-1-yn-1-yl)-5-methyl-4-oxo-2,3,4,5-tetrahydrobenzo[b][1,4]oxazepin-3-yl)picolinamide] | 8.03 | 6.60 | –
17 | 7.57 | COC1(C#Cc2ccc3c(c2)N(C)C(=O)[C@@H](NC(=O)c2cc(Oc4ccccc4)ccn2)CO3)CNC1 [Compound I-154, (S)—N-(7-((3-methoxyazetidin-3-yl)ethynyl)-5-methyl-4-oxo-2,3,4,5-tetrahydrobenzo[b][1,4]oxazepin-3-yl)-4-phenoxypicolinamide] | 8.46 | 6.18 | –
18 | 7.50 | CN1C(=O)[C@@H](NC(=O)c2n[nH]c(Cc3ccccc3)n2)COc2ccc(C#CCN3CCOCC3)cc21 [Compound I-96, (S)-5-benzyl-N-(5-methyl-7-(3-morpholinoprop-1-yn-1-yl)-4-oxo-2,3,4,5-tetrahydrobenzo[b][1,4]oxazepin-3-yl)-1H-1,2,4-triazole-3-carboxamide] | 8.51 | 9.10 | –
19 | 7.69 | CN1C(=O)[C@@H](NC(=O)c2n[nH]c(Cc3ccccc3F)n2)COc2ccc(C#CC(C)(C)O)cc21 [Compound I-80, (S)-5-(2-fluorobenzyl)-N-(7-(3-hydroxy-3-methylbut-1-yn-1-yl)-5-methyl-4-oxo-2,3,4,5-tetrahydrobenzo[b][1,4]oxazepin-3-yl)-1H-1,2,4-triazole-3-carboxamide] | 8.57 | 9.15 | –
20 | 7.47 | CN1C(=O)[C@@H](NC(=O)c2cc(Oc3ccc(F)cc3)ccn2)COc2ccc(C#CC(C)(C)CO)cc21 [Compound I-148, (S)-4-(4-fluorophenoxy)-N-(7-(4-hydroxy-3,3-dimethylbut-1-yn-1-yl)-5-methyl-4-oxo-2,3,4,5-tetrahydrobenzo[b][1,4]oxazepin-3-yl)picolinamide] | 8.28 | 6.44 | –
21 | 7.45 | CN1C(=O)[C@@H](NC(=O)c2n[nH]c(Cc3ccccc3)n2)COc2ccc(/C=C/C(=O)NC3CC3)cc21 [Compound I-23, (S,E)-5-benzyl-N-(7-(3-(cyclopropylamino)-3-oxoprop-1-en-1-yl)-5-methyl-4-oxo-2,3,4,5-tetrahydrobenzo[b][1,4]oxazepin-3-yl)-1H-1,2,4-triazole-3-carboxamide] | 8.17 | 4.84 | –
